One data set has as its system Neurospora crassa. The following applies: cited from earlier work.
The next data set deals with mouse deodenum. The following applies: 0.1 % of hydrogen peroxide; cited from earlier work.
In the next data set the test system is human cells. The following applies: cited from earlier work.
In data set [1] the test system is Salmonella typhimurium strain TA 100. Description: Mutagenicity / antimutagenic effect, preincubation Salmonella (Ames) test. The following applies: Salmonella typhimurium strain TA 100 (histidine-requiring), 48 h, pH 7.4.
Protocol: • I) Measuring mutagenicity and the antimutagenic effect • (i) Method: • The preincubation method described in Sugimura & Nagao; Chemical Mutagens, Vol. 6, p. 41, 1981 was used. • (ii) Microorganism: • Histidine-requiring Salmonella typhimurium strain TA 100 (hereunder S. TA 100) was used. • (iii) Preparation of samples: • (a) Instant coffee: • Instant coffee powder was dissolved in distilled water. Predetermined amounts of catalase were also dissolved in distilled water, and 50 µl of each solution was mixed with an equal amount of the aqueous coffee solution. • (b) Regular coffee: • Roasted and ground coffee beans (20 g) were extracted with hot distilled water (250 ml), and the extract was filtered through coffee filter paper No. 12 manufactured by Kalita Co., Ltd. The extract was freeze-dried, and after measuring the weight of the dry product, it was dissolved in distilled water. Predetermined amounts of catalase were also dissolved in distilled water, and 50 pl of each solution was mixed with an equal amount of the aqueous solution of coffee concentrate. • (c) Catalase: • A pure isolate from calf liver as manufactured by P-L Biochemicals, Inc. was used. […] After incubation at 37°C for 48 hours, the number of colonies forming on the plate was counted as revertants.

Molecules are shown by their SMILES.

On to `OO` [hydrogen peroxide], for which, in the data set with Neurospora crassa, the “mutagenic to Neurospora crassa” value is on record as “mutagenic”. Besides, in the data set on mouse deodenum, the carcinogenicity result is “cause malignant tumors”. The “clastogenic to human cells” value with human cells is reported as “clastogenic”. In addition, the “mutagenicity to S. TA 100” value in data set [1] is reported as 160 revertants/108 survivors/pmole.
